IC50 and EC50 data for 23 compounds are collected here from patent US11964973B2 (priority 2019, dated 2024).

SMILES strings stand for the structures. pEC50, pIC50: −log10 of the molar value. Like-named read-outs stand apart in the source and are kept apart here.

Assay [1] has as its target human DGKζ (Homo sapiens (Human), UniProt Q13574). Nature of the assay: biochemical. It counts as biochemical.
The target of assay [2] is Human DGKα(9-727) (Homo sapiens (Human), UniProt P23743). Nature of the assay: biochemical. The following applies: Table A; liposome (LIPGLO) assay; read-out: DGKα.
The target in assay [3] is DGKα (Homo sapiens (Human), UniProt P23743). Nature of the assay: biochemical. It counts as biochemical. The note with it: read-out: DGKα LIPGLO IC50.
For assay [4], the system named is Human venous whole blood (IFN-γ). Nature of the assay: Human whole blood IFN-γ assay. It counts as cell-based. The protocol: Assay 10: Human Whole Blood IFN-γ Assay
Human venous whole blood (22.5 μL per well), obtained from healthy donors, was pre-treated with compounds for one hour at 37° C. in a humidified 95% air/5% CO2 incubator. The blood was stimulated with 2.5 μL anti-human CD3 and anti-CD28 mAb at a final concentration of 1 μg/mL each for 24 hours at 37° C. IFN-γ in the supernatants was measured using AlphLISA kit (Cat #AL217).

The test system of assay [5] is human venous whole blood, CD8 positive population (pERK). Nature of the assay: DGK human whole blood pERK assay. Format: cell-based. The note with it: read-out: DGK HWB pERK IC50. The procedure, abridged:
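Heparinized whole blood from healthy donors preincubated with compound 1 hour at 37° C. Stimulation used anti-CD3 at 1 μg/mL final plus cross-linking goat anti-mouse IgG for 15 minutes. Flow cytometry scored percentage pERK-positive cells among CD8-positive cells.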

[6] abbreviates: Table A, liposome (LIPGLO) assay, read-out: DGKζ.
Setting [7] is: liposome (LIPGLO) assay, read-out: DGKζ LIPGLO IC50.
[8] abbreviates: Homo sapiens, 24 h, human whole blood, anti-CD3 plus anti-CD28, 24 hours; read-out: INFg Whole Blood Normalized Agonist EC50.
Setting [9] is: human whole blood, CD8 positive population.
The mark [10] stands for this setting: human whole blood, anti-CD3 plus anti-CD28, 24 hours; read-out: INFg Whole Blood Normalized Agonist EC50.
Setting [11] is: read-out: INFg Whole Blood Normalized Agonist EC50; human whole blood, anti-CD3 plus anti-CD28, 24 hours.

Broadly, the pEC50 is the negative decadic logarithm of the EC50, by convention in mol/L.

DGKα, sequence (P23743 whole entry, looked up): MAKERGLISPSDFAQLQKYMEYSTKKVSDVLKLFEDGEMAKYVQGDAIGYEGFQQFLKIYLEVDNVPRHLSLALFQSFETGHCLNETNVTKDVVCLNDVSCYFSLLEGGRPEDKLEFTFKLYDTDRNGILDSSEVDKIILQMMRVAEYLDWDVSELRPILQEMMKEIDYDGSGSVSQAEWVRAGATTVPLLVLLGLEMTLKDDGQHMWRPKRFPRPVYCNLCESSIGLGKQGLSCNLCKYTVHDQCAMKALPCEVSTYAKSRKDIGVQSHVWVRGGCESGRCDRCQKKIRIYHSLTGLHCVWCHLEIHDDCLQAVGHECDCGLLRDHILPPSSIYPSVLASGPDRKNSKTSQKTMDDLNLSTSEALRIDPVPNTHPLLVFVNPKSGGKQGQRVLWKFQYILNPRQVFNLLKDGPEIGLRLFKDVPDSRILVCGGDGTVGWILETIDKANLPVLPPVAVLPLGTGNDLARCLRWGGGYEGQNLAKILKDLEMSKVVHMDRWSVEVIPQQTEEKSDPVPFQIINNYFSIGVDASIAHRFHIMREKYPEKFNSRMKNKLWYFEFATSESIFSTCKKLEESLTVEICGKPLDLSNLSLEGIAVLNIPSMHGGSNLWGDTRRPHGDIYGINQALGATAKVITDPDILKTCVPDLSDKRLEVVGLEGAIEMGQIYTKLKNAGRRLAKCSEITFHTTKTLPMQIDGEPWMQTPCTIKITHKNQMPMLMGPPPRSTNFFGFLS
human DGKζ, sequence (Q13574 whole entry, looked up): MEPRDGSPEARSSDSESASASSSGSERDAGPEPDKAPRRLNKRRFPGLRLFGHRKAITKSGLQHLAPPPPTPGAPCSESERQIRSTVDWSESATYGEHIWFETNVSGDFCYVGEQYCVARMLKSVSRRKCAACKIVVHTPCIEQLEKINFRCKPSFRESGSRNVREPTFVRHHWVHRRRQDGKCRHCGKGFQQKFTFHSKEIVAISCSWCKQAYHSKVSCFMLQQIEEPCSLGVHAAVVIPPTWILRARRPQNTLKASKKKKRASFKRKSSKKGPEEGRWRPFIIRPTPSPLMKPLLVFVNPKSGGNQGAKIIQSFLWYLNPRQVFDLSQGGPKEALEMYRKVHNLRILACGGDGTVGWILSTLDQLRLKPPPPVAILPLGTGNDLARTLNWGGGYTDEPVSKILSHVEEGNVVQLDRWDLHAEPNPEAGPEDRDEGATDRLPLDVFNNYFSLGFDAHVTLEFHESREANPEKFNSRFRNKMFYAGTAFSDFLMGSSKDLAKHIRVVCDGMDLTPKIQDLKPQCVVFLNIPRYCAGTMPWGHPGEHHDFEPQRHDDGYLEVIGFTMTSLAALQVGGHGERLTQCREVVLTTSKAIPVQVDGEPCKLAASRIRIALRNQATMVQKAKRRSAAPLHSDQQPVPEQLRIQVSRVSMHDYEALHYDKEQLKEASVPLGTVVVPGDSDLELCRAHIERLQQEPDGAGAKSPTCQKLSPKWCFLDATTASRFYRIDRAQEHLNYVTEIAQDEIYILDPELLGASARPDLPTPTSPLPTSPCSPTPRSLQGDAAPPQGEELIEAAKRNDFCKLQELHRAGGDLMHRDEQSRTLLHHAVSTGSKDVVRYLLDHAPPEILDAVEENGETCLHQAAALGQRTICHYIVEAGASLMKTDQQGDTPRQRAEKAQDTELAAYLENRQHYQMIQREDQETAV
Human DGKα(9-727), sequence (P23743 whole entry, looked up): as the sequence (P23743 whole entry, looked up) above

`CO[C@@H]1CN(c2cc(=O)n(C)c3ccc(C#N)nc23)CC[C@H]1Oc1cccc(C(F)(F)F)c1` (single isomer, unassigned) [Example 262, (±)-trans-8-(3-methoxy-4-(3-(trifluoromethyl)phenoxy)piperidin-1-yl)-5-methyl-6-oxo-5,6-dihydro-1,5-naphthyridine-2-carbonitrile]: the pIC50 is 4.82 in assay [1] (setting [6]) and 5.43 in assay [2].
Take `CC[C@@H]1CN(c2cc(=O)n(C)c3ccc(C#N)nc23)[C@@H](C)C[C@@H]1Oc1cccc(C(F)(F)F)c1` [Example 308, 8-((2S,4S,5R)-5-ethyl-2-methyl-4-(3-(trifluoromethyl)phenoxy)piperidin-1-yl)-5-methyl-6-oxo-5,6-dihydro-1,5-naphthyridine-2-carbonitrile]: the pIC50 in assay [1] (setting [6]) is 5.51; in assay [2], 5.37.
In the case of `Cn1c(=O)cc(N2CCC(Oc3ccnc(C(F)(F)F)n3)CC2)c2nc(C#N)ccc21` [Example 76, 5-methyl-6-oxo-8-(4-((2-(trifluoromethyl)pyrimidin-4-yl)oxy)piperidin-1-yl)-5,6-dihydro-1,5-naphthyridine-2-carbonitrile], the pIC50 in assay [1] (setting [7]) was 4.47; in assay [3] (liposome (LIPGLO) assay), 4.96; in assay [5] (setting [9]), 4.70. For the same compound, the pEC50 in assay [4] (setting [8]) was 4.70.
For `CC(C)c1ccc(O[C@H]2CCN(c3cc(=O)n(C)c4ccc(C#N)nc34)C[C@H]2C)cc1` (single isomer, unassigned) [Example 178], the results for the pIC50 in assay [1] (setting [7]), in assay [3] (liposome (LIPGLO) assay) and in assay [5] (setting [9]) were 6.28, 7.21 and 5.64, respectively. Besides, the pEC50 in assay [4] (setting [10]) is 5.34.
As to `CC[C@@H]1CN(c2cc(=O)n(C)c3ccc(C#N)nc23)CC[C@@H]1Oc1cccc(C(C)(C)C)c1` [Example 167, 8-((3R,4S)-4-(3-(tert-butyl)phenoxy)-3-ethylpiperidin-1-yl)-5-methyl-6-oxo-5,6-dihydro-1,5-naphthyridine-2-carbonitrile], the pIC50 in assay [1] (setting [7]) was 6.00; in assay [3] (liposome (LIPGLO) assay) it was 6.92; in assay [5] (Homo sapiens, CD8 positive) it was 5.70. Also, the pEC50 in assay [4] (setting [11]) is 5.80.
`CC[C@@H]1CN(c2cc(=O)n(C)c3ccc(C#N)nc23)CC[C@@H]1Oc1cccc(C(F)(F)F)c1` [Example 168]: the values for the pIC50 in assay [1] (setting [7]), in assay [3] (liposome (LIPGLO) assay) and in assay [5] (setting [9]) were 6.05, 6.00 and 5.43, respectively. Also, in assay [4] (setting [10]), the pEC50 was 5.80.
`CCC(C)(C)c1ccc(O[C@H]2CCN(c3cc(=O)n(C)c4ccc(C#N)nc34)C[C@H]2C)cc1` (single isomer, unassigned) [Example 170]: the pIC50 in assay [1] (setting [7]) is 5.96; in assay [3] (liposome (LIPGLO) assay), 6.43; in assay [5] (setting [9]), 6.27. Moreover, in assay [4] (setting [10]), the pEC50 is 6.07.
As to `Cc1nccc(OC2CCN(c3cc(=O)n(C)c4ccc(C#N)nc34)CC2)n1` [Example 72, 5-methyl-8-(4-((2-methylpyrimidin-4-yl)oxy)piperidin-1-yl)-6-oxo-5,6-dihydro-1,5-naphthyridine-2-carbonitrile], the results for the pIC50 in assay [1] (setting [7]), in assay [3] (liposome (LIPGLO) assay) and in assay [5] (setting [9]) were 4.41, 5.38 and 4.70, respectively. Also, in assay [4] (setting [8]), the pEC50 is 4.70.
As to `COc1cc(OC2CCN(c3cc(=O)n(C)c4ccc(C#N)nc34)CC2)nc2cc(Cl)ccc12` [Example 73, 8-(4-((7-chloro-4-methoxyquinolin-2-yl)oxy)piperidin-1-yl)-5-methyl-6-oxo-5,6-dihydro-1,5-naphthyridine-2-carbonitrile], the pIC50 in assay [1] (setting [7]) is 5.08; in assay [3] (liposome (LIPGLO) assay) it was 5.66. Also, the pEC50 in assay [4] (setting [8]) is 4.70.
With `CCC(C)(C)c1ccc(O[C@@H]2CCN(c3cc(=O)n(C)c4ccc(C#N)nc34)C[C@H]2C)cc1` (single isomer, unassigned) [Example 84], the pIC50 is 4.64 in assay [1] (setting [7]) and 7.32 in assay [3] (liposome (LIPGLO) assay). The pEC50 in assay [4] (setting [10]) was 5.92.
With `Cn1c(=O)cc(N2CCC(Oc3ccc(C4CC4)cc3)CC2)c2nc(C#N)ccc21` [Example 59, 8-(4-(4-cyclopropylphenoxy)piperidin-1-yl)-5-methyl-6-oxo-5,6-dihydro-1,5-naphthyridine-2-carbonitrile], the pIC50 in assay [1] (setting [7]) was 5.43; in assay [3] (liposome (LIPGLO) assay), 6.00. The pEC50 in assay [4] (setting [8]) is 5.19.
With `CC(C)c1ccc(O[C@@H]2CCN(c3cc(=O)n(C)c4ccc(C#N)nc34)C[C@H]2C)cc1` [Example 94, 8-((3R,4R)-4-(4-isopropylphenoxy)-3-methylpiperidin-1-yl)-5-methyl-6-oxo-5,6-dihydro-1,5-naphthyridine-2-carbonitrile], the pIC50 was 5.21 in assay [1] (setting [7]), 7.10 in assay [3] (liposome (LIPGLO) assay) and 5.41 in assay [5] (setting [9]). Also, the pEC50 in assay [4] (setting [8]) was 5.96.
Turning to `CC[C@@H]1CN(c2cc(=O)n(C)c3ccc(C#N)nc23)CC[C@H]1Oc1cccc(C(C)C)c1` (single isomer, unassigned) [Example 139], the pIC50 in assay [1] (setting [7]) is 5.77; in assay [3] (liposome (LIPGLO) assay), 7.00; in assay [5] (Homo sapiens, CD8 positive) it was 5.28. Further, in assay [4] (setting [11]), the pEC50 is 5.82.
On to `CC[C@@H]1CN(c2cc(=O)n(C)c3ccc(C#N)nc23)CC[C@@H]1Oc1cccc(C(C)(C)C)c1` [Example 166, 8-((3R,4S)-4-(3-(tert-butyl)phenoxy)-3-ethylpiperidin-1-yl)-5-methyl-6-oxo-5,6-dihydro-1,5-naphthyridine-2-carbonitrile], for which the pIC50 in assay [1] (setting [7]) was 5.80; in assay [3] (liposome (LIPGLO) assay), 7.34. The pEC50 in assay [4] (setting [11]) is 6.10.
Consider `Cc1cc(OC2CCN(c3cc(=O)n(C)c4ccc(C#N)nc34)CC2)nc(C(C)C)n1` [Example 78, 8-(4-((2-isopropyl-6-methylpyrimidin-4-yl)oxy)piperidin-1-yl)-5-methyl-6-oxo-5,6-dihydro-1,5-naphthyridine-2-carbonitrile], for which the figures for the pIC50 in assay [1] (setting [7]), in assay [3] (liposome (LIPGLO) assay) and in assay [5] (setting [9]) were 4.80, 6.09 and 4.70, respectively.
In the case of `CCCc1ccc(OC2CCN(c3cc(=O)n(C)c4ccc(C#N)nc34)CC2)cc1` [Example 57, 5-methyl-6-oxo-8-(4-(4-propylphenoxy)piperidin-1-yl)-5,6-dihydro-1,5-naphthyridine-2-carbonitrile], the pIC50 in assay [1] (setting [7]) is 5.21; in assay [3] (liposome (LIPGLO) assay), 6.14. Further, in assay [4] (setting [8]), the pEC50 was 5.37.
Regarding `CC(C)Oc1ccc(OC2CCN(c3cc(=O)n(C)c4ccc(C#N)nc34)CC2)nc1` [Example 66, 8-(4-((5-isopropoxypyridin-2-yl)oxy)piperidin-1-yl)-5-methyl-6-oxo-5,6-dihydro-1,5-naphthyridine-2-carbonitrile], the results for the pIC50 in assay [1] (setting [7]), in assay [3] (liposome (LIPGLO) assay) and in assay [5] (setting [9]) were 5.40, 5.92 and 5.57, respectively. Moreover, the pEC50 in assay [4] (setting [8]) was 6.09.
As for `Cc1cccc(O[C@@H]2CCN(c3cc(=O)n(C)c4ccc(C#N)nc34)C[C@H]2C)c1` (single isomer, unassigned) [Example 108], the results for the pIC50 in assay [1] (setting [7]) and in assay [3] (liposome (LIPGLO) assay) were 4.96 and 6.04, respectively. The pEC50 in assay [4] (setting [8]) was 5.52.
In the same order, the values of `Cc1cc(OC2CCN(c3cc(=O)n(C)c4ccc(C#N)nc34)CC2)ccc1C(C)C` [Example 60, 8-(4-(4-isopropyl-3-methylphenoxy)piperidin-1-yl)-5-methyl-6-oxo-5,6-dihydro-1,5-naphthyridine-2-carbonitrile] are 5.26, 6.62 and 5.10.
`Cn1c(=O)cc(N2CCC(Oc3ccc(OC(C)(C)C)cc3)CC2)c2nc(C#N)ccc21` [Example 65, 8-(4-(4-(tert-butoxy)phenoxy)piperidin-1-yl)-5-methyl-6-oxo-5,6-dihydro-1,5-naphthyridine-2-carbonitrile]: the pIC50 in assay [1] (setting [7]) is 5.48; in assay [3] (liposome (LIPGLO) assay), 6.25. The pEC50 in assay [4] (setting [8]) is 5.17.
`C[C@@H]1CN(c2cc(=O)n(C)c3ccc(C#N)nc23)CC[C@H]1Oc1ccc(C2CCCC2)cc1` [Example 100, 8-((3R,4R)-4-(4-cyclopentylphenoxy)-3-methylpiperidin-1-yl)-5-methyl-6-oxo-5,6-dihydro-1,5-naphthyridine-2-carbonitrile]: the figures for the pIC50 in assay [1] (setting [7]) and in assay [3] (liposome (LIPGLO) assay) were 4.55 and 6.96, respectively. Besides, in assay [4] (setting [8]), the pEC50 was 5.57.
As for `C[C@@H]1CN(c2cc(=O)n(C)c3ccc(C#N)nc23)CC[C@H]1Oc1cccc(C2CC2)c1` [Example 91, 8-((3R,4R)-4-(3-cyclopropylphenoxy)-3-methylpiperidin-1-yl)-5-methyl-6-oxo-5,6-dihydro-1,5-naphthyridine-2-carbonitrile], the figures for the pIC50 in assay [1] (setting [7]) and in assay [3] (liposome (LIPGLO) assay) were 4.85 and 7.19, respectively. Moreover, in assay [4] (setting [8]), the negative logarithm of the EC50 (pEC50) was 5.36.
Turning to `CCC(C)(C)c1ccc(O[C@H]2CCN(c3cc(=O)n(C)c4ccc(C#N)nc34)C[C@H]2C)cc1` (single isomer, unassigned) [Example 171], the pIC50 is 5.43 in assay [1] (read-out: DGKζ LIPGLO IC50) and 5.85 in assay [3]. In assay [4] (setting [10]), the pEC50 is 5.52.
